{"source": "paper PMC4263960", "about": "(Pediatric blood & cancer, 2013)", "origin": "cited, not measured here", "key": {"[1]": {"system": "pediatric preclinical xenograft models", "conditions": "cited from earlier work"}, "[2]": {"system": "neuroblastoma in children", "conditions": "45 children with neuroblastoma; cited from earlier work"}, "Ewing sarcoma patients": {"system": "Ewing sarcoma patients", "conditions": "cited from earlier work"}, "[3]": {"system": "recurrent solid tumors in children", "conditions": "cited from earlier work"}, "pediatric solid tumors": {"system": "pediatric solid tumors", "conditions": "cited from earlier work"}}, "note": "Read-outs that look alike come from different tables or passages of the source."}
{"smiles": "COc1ccc(S(=O)(=O)Nc2cccnc2Nc2ccc(O)cc2)cc1", "note": "[ABT-751]", "values": [{"measurement": "preclinical models with regression", "setting": "[1]; all models", "result": "4 of 25"}, {"measurement": "preclinical models with regression", "setting": "[1]; neuroblastoma models refractory to vincristine and paclitaxel", "result": "2 of 4"}, {"measurement": "objective responses", "setting": "[2]", "result": "absence of objective responses"}]}
{"smiles": "CC[C@]1(O)C[C@H]2CN(CCc3c([nH]c4ccccc34)[C@@](C(=O)OC)(c3cc4c(cc3OC)N(C=O)[C@H]3[C@@](O)(C(=O)OC)[C@H](OC(C)=O)[C@]5(CC)C=CCN6CC[C@]43[C@@H]65)C2)C1", "note": "[vincristine]", "values": [{"measurement": "patients with a partial response", "setting": "Ewing sarcoma patients", "result": "one of seven"}]}
{"smiles": "CCC1=C[C@@H]2CN(C1)Cc1c([nH]c3ccccc13)[C@@](C(=O)OC)(c1cc3c(cc1OC)N(C)[C@H]1[C@@](O)(C(=O)OC)[C@H](OC(C)=O)[C@]4(CC)C=CCN5CC[C@]31[C@@H]54)C2", "note": "[vinorelbine]", "values": [{"measurement": "patients with objective responses", "setting": "[3]; astrocytoma", "result": "1 of 4"}, {"measurement": "patients with objective responses", "setting": "[3]; eight children with neuroblastoma", "result": "no responses"}, {"measurement": "patients with objective responses", "setting": "[3]; medulloblastoma", "result": "1 of 2"}, {"measurement": "patients with objective responses", "setting": "[3]; nine patients with non-rhabdomyosarcoma soft tissue sarcoma", "result": "no responses"}, {"measurement": "patients with objective responses", "setting": "[3]; rhabdomyosarcoma", "result": "4 of 11"}, {"measurement": "patients with objective responses", "setting": "pediatric solid tumors; Ewing sarcomas", "result": "one of seven"}, {"measurement": "patients with objective responses", "setting": "pediatric solid tumors; osteosarcomas", "result": "one of five"}, {"measurement": "patients with objective responses", "setting": "pediatric solid tumors; rhabdomyosarcoma", "result": "6 of 12"}]}
